Consider 13 molecules from patent publication US5356880A, “Glycyrrhetinic acid derivatives” (priority 1991, dated 1994).

For one data set, the system named is influenza A virus. The note with it: cited from earlier work.
The next data set has as its system influenza B virus. The note with it: cited from earlier work.
In a further data set the test system is AIDS virus (HIV). The note with it: cited from earlier work.
Data set [1] has as its system GMK cells. As to the kind of experiment: Cytotoxicity (HSV UV-238 strain test), microscopic.
For data set [2], the system named is GMK cells.
For the next data set, the system named is HSV (UV-238 Strain). Description: Action on HSV (UV-238 strain), CPE inhibition, TCID50. The format is cell-based. The note with it: read-out: Antiviral Activity (ΔTCID50); for log reduction at 1 µg/mL: 1 μg/ml; for log reduction at 5 µg/mL: 5 μg/ml; for log reduction at 25 µg/mL: 25 μg/ml.
In data set [3] the test system is HSV-1 (Miyama strain). Description: In vitro antiviral action on cells infected with HSV-1 (Miyama strain), CPE inhibition, TCID50. The format is cell-based, Herpes simplex virus type 1. The note with it: read-out: Antiviral Activity (ΔTCID50); for log reduction at 5 µg/mL: 5 μg/ml; for log reduction at 25 µg/mL: 25 μg/ml.
The next data set concerns HSV-2 (UW-268 strain). Description: microbe, parasite or virus in culture. The format is cell-based, Herpes simplex virus type 2. The note with it: Human alphaherpesvirus 2, Vero, read-out: Antiviral Activity (ΔTCID50).
Data set [4] deals with vaccinia viruses (D1E strain). Description: microbe, parasite or virus in culture. Format: cell-based. The note with it: Orthopoxvirus vaccinia, Vero, read-out: Antiviral Activity (ΔTCID50).
Data set [5] in a line: Acute toxicity testing, oral, mice (LD50, Litchfield-Willcoxon). The note with it: mouse, in vivo, ICR male mice, 7 days observation. From the text:
The compounds to be tested in the form of a 2% aqueous solution of Tween 80 were orally administrated to ICR male mice (weights: 24-30 g), five for each group.

The subject of the next data set is HSV-1 (KOS strain). Description: microbe, parasite or virus in culture. Format: cell-based, Herpes simplex virus type 1. The note with it: Human alphaherpesvirus 1, Vero, read-out: Antiviral Activity (ΔTCID50).
The subject of data set [6] is influenza viruses (A/PR/8 strain). As to the kind of experiment: microbe, parasite or virus in culture. The note with it: unidentified influenza virus, PR/8, MDCK, read-out: Antiviral Activity (ΔTCID50). Format: cell-based, influenza virus A/PR/8.
Data set [7] has the same test system. As to the kind of experiment: microbe, parasite or virus in culture. Format: cell-based, influenza virus A/PR/8. The note with it: unidentified influenza virus, read-out: Antiviral Activity (ΔTCID50).
In data set [8] the test system is HSV-1 (Miyama strain). Description: In vivo antiviral action: prolongation of life of mice infected with HSV-1. Also on record: species or system BALB/c male mice. The note with it: abdominal route, once a day, control 6.1 ± 0.6. An excerpt:
BALB/c male mice of three weeks old, 10 for each group, were abdominally seeded with an infectious amount, 10LD50, of HSV-1(Miyama strain). One hour later and over six days after the next day, once a day, Compound (5) referred to in Table 1 was continuously administrated to each animal via an abdominal route.

[9] abbreviates: Human alphaherpesvirus 1, 1 μg/ml, GMK cells.
Where [10] appears, read: Human alphaherpesvirus 1, GMK cells.

Where two headings read alike, the source gives them in different places.

For `CC(N)C12CC3CC(CC(C3)C1)C2` (racemic) [remantadine], in the data set with influenza A virus, the “efficacy against influenza A virus” value is given as “efficacious against influenza A virus”. The “efficacy against influenza B virus” value in the data set with influenza B virus is given as “not against influenza B virus”.

With `Cc1cn([C@H]2C[C@H](N=[N+]=[N-])[C@@H](CO)O2)c(=O)[nH]c1=O` [AZT], the “effect on AIDS” value in the data set on AIDS virus (HIV) was “delay the development of AIDS, but cannot accelerate healing”.

As to `NC12CC3CC(CC(C3)C1)C2` [Amantadine], the “efficacy against influenza A virus” value with influenza A virus was “efficacious against influenza A virus”. For the same molecule, in the data set with influenza B virus, the “efficacy against influenza B virus” value is listed as “not against influenza B virus”.

In the case of `Nc1ncnc2c1ncn2[C@@H]1O[C@H](CO)[C@@H](O)[C@@H]1O` [Ara-a, reference compound], the magnitude of cytotoxicity entry with GMK cells [1] (1 μg/ml) and with GMK cells [2] (1 μg/ml) was “-” each time. Besides, the log reduction at 1 µg/mL with HSV (UV-238 Strain) turned out to be 1.1; with HSV-1 (Miyama strain) [3] (setting [9]) it was 1.2. In addition, the log reduction at 5 µg/mL with HSV (UV-238 Strain) turned out to be 1.7; in the data set on HSV-1 (Miyama strain) [3] (setting [10]) it was 1.5. Moreover, the log reduction at 25 µg/mL with HSV (UV-238 Strain) amounted to 2.6; in the data set on HSV-1 (Miyama strain) [3] (setting [10]), 2.5.

For `CC1(C)[C@@H](OC(=O)CCC(=O)O)CC[C@]2(C)[C@H]3C(=O)C=C4[C@@H]5C[C@@](C)(C(=O)O)CC[C@]5(C)CC[C@@]4(C)[C@]3(C)CC[C@@H]12` [Carbenoxolone, reference compound], in the data set with HSV (UV-238 Strain), the log reduction at 1 µg/mL came out at 0.2, the log reduction at 5 µg/mL is 0.2 and the log reduction at 25 µg/mL stood at 2.2. Besides, in the data set on HSV-1 (Miyama strain) [3] (setting [9]), the log reduction at 1 µg/mL stood at 0.2. In the data set with HSV-1 (Miyama strain) [3] (setting [10]), the log reduction at 5 µg/mL was found to be 0.3 and the log reduction at 25 µg/mL worked out at 2.4.

Broadly, the LD50 is the dose at which mortality reaches 50%. For `COc1ccccc1N1CCN(C(=O)[C@@]2(C)CC[C@]3(C)CC[C@]4(C)C(=CC[C@@H]5[C@@]6(C)CC[C@H](O[C@@H]7O[C@H](CO)[C@@H](O)[C@H](O)[C@H]7O)C(C)(C)[C@@H]6CC[C@]54C)[C@@H]3C2)CC1` [Comp. Ex. 25, 1-(3β-(β-D-glucopyranosyloxy)-18β-olean-12-en-30-oyl)-4-(2-methoxyphenyl)piperazine], the log reduction at 1 µg/mL with HSV-2 (UW-268 strain) was determined as 1.85; in data set [4], 1.7; in the data set with HSV-1 (KOS strain) it was 2.04; in data set [6], 1.31; in the data set on HSV-1 (Miyama strain) [3] (Human alphaherpesvirus 1, GMK), 1.86. The log reduction at 5 µg/mL was 2.92 with HSV-2 (UW-268 strain); 2.67 in [4]; more than 3.19 in the data set on HSV-1 (KOS strain); 1.86 in [6]; more than 3 in the data set with HSV-1 (Miyama strain) [3] (setting [10]). Moreover, the log reduction at 25 µg/mL was more than 3.3 in the data set on HSV-2 (UW-268 strain); 2.53 in data set [4]; more than 3.31 in the data set with HSV-1 (KOS strain); 2.22 in data set [6]; more than 3.56 in the data set on HSV-1 (Miyama strain) [3] (setting [10]). This molecule also returned an LD50 at 168 h in data set [5] of more than 1000 mg/kg. Also, the magnitude of cytotoxicity entry with GMK cells [2] (1 μg/ml) is “-”; in the data set with GMK cells [2] (5 μg/ml), “-”; with GMK cells [2] (25 μg/ml), “±”.

For the molecule `O=c1[nH]cnc2c1ncn2[C@H]1CC[C@@H](CO)O1` [DDI], the “effect on AIDS” value with AIDS virus (HIV) is on record as “delay the development of AIDS, but cannot accelerate healing”.

For the molecule `NC(=O)c1ncn([C@@H]2O[C@H](CO)[C@@H](O)[C@H]2O)n1` [Ribavirin, reference compound], the log reduction at 1 µg/mL in data set [7] (PR/8, 1 μg/ml, MDCK cells) was 0.8. For the same molecule, in data set [7] (PR/8, 5 μg/ml, MDCK cells), the log reduction at 5 µg/mL stood at 1.8. Further, the log reduction at 20 µg/mL in data set [7] (PR/8, 20 μg/ml, MDCK cells) is 3.2. In addition, the magnitude of cytotoxicity result in the data set on MDCK cells (1 μg/ml), with MDCK cells (5 μg/ml) and with MDCK cells (20 μg/ml) was “-” throughout.

In the case of `COc1ccccc1N1CCN(C(=O)[C@@]2(C)CC[C@]3(C)CC[C@]4(C)C(=CC[C@@H]5[C@@]6(C)CC[C@H](OC(=O)/C=C\C(=O)O)C(C)(C)[C@@H]6CC[C@]54C)[C@@H]3C2)CC1` [Table 1, Comp. (5), 1-[3β-(3-carboxy-cis-propenoyloxy)-18β-olean-12-en-30-oyl]-4-(2-methoxyphenyl)piperazine], the magnitude of cytotoxicity result in the data set with GMK cells [1] (1 μg/ml), in the data set on GMK cells [1] (5 μg/ml), with GMK cells [1] (25 μg/ml), in the data set with MDCK cells, in the data set with GMK cells [2] (1 μg/ml) and in the data set with GMK cells [2] (5 μg/ml) was “-” throughout. Besides, the magnitude of cytotoxicity entry with GMK cells [2] (25 μg/ml) is recorded as “-”. Also, the log reduction at 1 µg/mL in [7] (PR/8, MDCK) was 0.8; in the data set with HSV (UV-238 Strain), 1.3; in the data set with HSV-1 (Miyama strain) [3] (setting [9]) it was 1. For the same molecule, the log reduction at 5 µg/mL in data set [7] (PR/8, MDCK) worked out at 1.2; with HSV (UV-238 Strain), 2.2; in the data set on HSV-1 (Miyama strain) [3] (setting [10]), 2.1. For the same molecule, the log reduction at 20 µg/mL in [7] (PR/8, MDCK) amounted to 2.1. In addition, the log reduction at 25 µg/mL was 2.8 with HSV (UV-238 Strain) and 3.1 in the data set with HSV-1 (Miyama strain) [3] (setting [10]). Moreover, the “Mean Survival Days (average ± standard error)” value with HSV-1 (Miyama strain) [8] (5 mg/Kg) came to 7.9 ± 1.1 days; with HSV-1 (Miyama strain) [8] (10 mg/Kg, p < 0.05 (t-Test)), 8.6 ± 0.7 days; with HSV-1 (Miyama strain) [8] (20 mg/Kg, p < 0.001 (t-Test)) it was 11.2 ± 1.1 days.

Take `COc1ccccc1N1CCN(C(=O)[C@@]2(C)CC[C@]3(C)CC[C@]4(C)C(=CC[C@@H]5[C@@]6(C)CC[C@H](O)C(C)(C)[C@@H]6CC[C@]54C)[C@@H]3C2)CC1` [Table 1, Comp. (9), 1-(3β-hydroxy-18β-olean-12-en-30-oyl)-4-(2-methoxyphenyl) piperazine]: the magnitude of cytotoxicity result in the data set with GMK cells [1] (1 μg/ml) and in the data set with GMK cells [2] (1 μg/ml) was “-” throughout. For the same molecule, the log reduction at 1 µg/mL is 0.5 in [7] (PR/8, MDCK); 0.7 with HSV (UV-238 Strain); 1.3 in the data set on HSV-1 (Miyama strain) [3] (setting [9]). Also, the log reduction at 5 µg/mL in data set [7] (PR/8, MDCK) was found to be 1; in the data set with HSV (UV-238 Strain), 1.3; with HSV-1 (Miyama strain) [3] (setting [10]) it was 1.2. Besides, the log reduction at 20 µg/mL in [7] (PR/8, MDCK) came to 1.3. Besides, in the data set with HSV (UV-238 Strain), the log reduction at 25 µg/mL came to 2.5.

Consider `CC(C)=CCCC(C)=CCCC(C)=CCN1CCN(C(=O)[C@@]2(C)CC[C@]3(C)CC[C@]4(C)C(=CC[C@@H]5[C@@]6(C)CC[C@H](OC(=O)/C=C\C(=O)O)C(C)(C)[C@@H]6CC[C@]54C)[C@@H]3C2)CC1` [Table 1, Comp. (10)], for which the magnitude of cytotoxicity entry in the data set with GMK cells [2] (1 μg/ml) is “-”. Moreover, the log reduction at 1 µg/mL in the data set on HSV-1 (Miyama strain) [3] (setting [9]) came to 0.7. For the same molecule, in the data set with HSV-1 (Miyama strain) [3] (setting [10]), the log reduction at 5 µg/mL was found to be 2 and the log reduction at 25 µg/mL is 1.9.

In the case of `CC1(C)[C@@H](OCC(=O)O)CC[C@]2(C)[C@H]3CC=C4[C@@H]5C[C@@](C)(C(=O)O)CC[C@]5(C)CC[C@@]4(C)[C@]3(C)CC[C@@H]12` [Table 1, Comp. (15), disodium-3β-carboxymethoxy-18β-olean-12-en-30-oate], the magnitude of cytotoxicity entry in the data set on GMK cells [2] (1 μg/ml) is recorded as “-”. In addition, the magnitude of cytotoxicity entry with GMK cells [2] (5 μg/ml) is listed as “-”. Also, in the data set with HSV-1 (Miyama strain) [3] (setting [9]), the log reduction at 1 µg/mL is 0. Besides, in the data set on HSV-1 (Miyama strain) [3] (setting [10]), the log reduction at 5 µg/mL was determined as 0.3 and the log reduction at 25 µg/mL amounted to 1.

Consider `CC1(C)[C@@H](OCCC(=O)O)CC[C@]2(C)[C@H]3CC=C4[C@@H]5C[C@@](C)(C(=O)O)CC[C@]5(C)CC[C@@]4(C)[C@]3(C)CC[C@@H]12` [Table 1, Comp. (18), disodium-3β-(2-carboxyethoxy)-18β-olean-12-en-30-oate], for which the magnitude of cytotoxicity entry with GMK cells [2] (1 μg/ml) is recorded as “-”. Besides, the magnitude of cytotoxicity entry in the data set on GMK cells [2] (5 μg/ml) is on record as “-”. For the same molecule, the log reduction at 1 µg/mL with HSV-1 (Miyama strain) [3] (setting [9]) was 0.7. Moreover, in the data set on HSV-1 (Miyama strain) [3] (setting [10]), the log reduction at 5 µg/mL stood at 1.6 and the log reduction at 25 µg/mL came out at 1.2.
